{
  "source": "patent US10273233B2",
  "about": "“Inhibitors of influenza viruses replication” (Vertex Pharmaceuticals Incorporated, priority 2015, dated 2019)",
  "key": {"[1]": {"experiment": "physchem", "conditions": "thermodynamic from solid"}, "[2]": {"experiment": "physchem", "conditions": "thermodynamic from solid", "remark": "listed apart in the source"}, "[3]": {"experiment": "not given", "remark": "listed apart in the source"}},
  "note": "Where a name gives a salt, the structure may show the parent alone. Read-outs that look alike come from different tables or passages of the source.",
  "data": [
    {"smiles": "CC(C)(C)[C@@H](CC(=O)O)Nc1nc(-c2c[nH]c3ncc(F)cc23)ncc1F", "note": "[Hydrate 1 of Compound (1)]", "values": [
      {"measurement": "USP Definition", "setting": "pH 0.84", "result": "Slightly Soluble"},
      {"measurement": "USP Definition", "setting": "pH 1.59", "result": "Slightly Soluble"},
      {"measurement": "Final Form", "setting": "pH 2.84", "result": "Hydrate 3"},
      {"measurement": "USP Definition", "setting": "pH 2.84", "result": "Practically Insoluble"},
      {"measurement": "Final Form", "setting": "pH 4.22", "result": "Hydrate 3"},
      {"measurement": "USP Definition", "setting": "pH 4.22", "result": "Practically Insoluble"},
      {"measurement": "Final Form", "setting": "pH 5.17", "result": "Hydrate 3"},
      {"measurement": "USP Definition", "setting": "pH 5.17", "result": "Practically Insoluble"},
      {"measurement": "Final Form", "setting": "pH 5.96", "result": "Hydrate 3"},
      {"measurement": "USP Definition", "setting": "pH 5.96", "result": "Practically Insoluble"},
      {"measurement": "Final Form", "setting": "pH 6.38", "result": "Hydrate 3"},
      {"measurement": "USP Definition", "setting": "pH 6.38", "result": "Very Slightly Soluble"},
      {"measurement": "Final Form", "setting": "pH 6.71", "result": "Hydrate 3"},
      {"measurement": "USP Definition", "setting": "pH 6.71", "result": "Very Slightly Soluble"},
      {"measurement": "Final Form", "setting": "pH 7.07", "result": "Hydrate 3"},
      {"measurement": "USP Definition", "setting": "pH 7.07", "result": "Very Slightly Soluble"},
      {"measurement": "Final Form", "setting": "pH 7.73", "result": "Hydrate 3"},
      {"measurement": "USP Definition", "setting": "pH 7.73", "result": "Slightly Soluble"},
      {"measurement": "Final Form", "setting": "pH 8.13", "result": "Hydrate 3"},
      {"measurement": "USP Definition", "setting": "pH 8.13", "result": "Slightly Soluble"},
      {"measurement": "Final Form", "setting": "pH 8.4", "result": "Hydrate 3"},
      {"measurement": "USP Definition", "setting": "pH 8.4", "result": "Slightly Soluble"},
      {"measurement": "solubility at 2 weeks", "setting": "[1]; pH 0.84, saline or isotonic", "result": 2.15, "unit": "mg/mL"},
      {"measurement": "solubility at 2 weeks", "setting": "[1]; pH 1.59, saline or isotonic", "result": 1.15, "unit": "mg/mL"},
      {"measurement": "solubility at 2 weeks", "setting": "[1]; pH 2.84, saline or isotonic", "result": 0.057, "unit": "mg/mL"},
      {"measurement": "solubility at 2 weeks", "setting": "[1]; pH 4.22, saline or isotonic", "result": 0.004, "unit": "mg/mL"},
      {"measurement": "solubility at 2 weeks", "setting": "[1]; pH 5.17, saline or isotonic", "result": 0.021, "unit": "mg/mL"},
      {"measurement": "solubility at 2 weeks", "setting": "[1]; pH 5.96, saline or isotonic", "result": 0.078, "unit": "mg/mL"},
      {"measurement": "solubility at 2 weeks", "setting": "[1]; pH 6.38, saline or isotonic", "result": 0.216, "unit": "mg/mL"},
      {"measurement": "solubility at 2 weeks", "setting": "[1]; pH 6.71, saline or isotonic", "result": 0.42, "unit": "mg/mL"},
      {"measurement": "solubility at 2 weeks", "setting": "[1]; pH 7.07, saline or isotonic", "result": 0.335, "unit": "mg/mL"},
      {"measurement": "solubility at 2 weeks", "setting": "[1]; pH 7.73, saline or isotonic", "result": 2.23, "unit": "mg/mL"},
      {"measurement": "solubility at 2 weeks", "setting": "[1]; pH 8.13, saline or isotonic", "result": 4.83, "unit": "mg/mL"},
      {"measurement": "solubility at 2 weeks", "setting": "[1]; pH 8.4, saline or isotonic", "result": 4.36, "unit": "mg/mL"},
      {"measurement": "solubility at 5 days", "setting": "[2]; pH 1.55, fassgf or other biorelevant", "result": 2.66, "unit": "mg/mL"},
      {"measurement": "solubility at 5 days", "setting": "[2]; pH 3.56, aqueous with cosolvent or surfactant or cyclodextrin", "result": 0.285, "unit": "mg/mL"},
      {"measurement": "solubility at 5 days", "setting": "[2]; pH 3.96, aqueous with cosolvent or surfactant or cyclodextrin", "result": 0.135, "unit": "mg/mL"},
      {"measurement": "solubility at 5 days", "setting": "[2]; pH 4.15, aqueous with cosolvent or surfactant or cyclodextrin", "result": 1.15, "unit": "mg/mL"},
      {"measurement": "solubility at 5 days", "setting": "[2]; pH 4.17, aqueous with cosolvent or surfactant or cyclodextrin", "result": 1.64, "unit": "mg/mL"},
      {"measurement": "solubility at 5 days", "setting": "[2]; pH 4.18, saline or isotonic", "result": 0.108, "unit": "mg/mL"},
      {"measurement": "solubility at 5 days", "setting": "[2]; pH 4.79, aqueous with cosolvent or surfactant or cyclodextrin", "result": 0.089, "unit": "mg/mL"},
      {"measurement": "solubility at 5 days", "setting": "[2]; pH 4.84, saline or isotonic", "result": 0.094, "unit": "mg/mL"},
      {"measurement": "solubility at 5 days", "setting": "[2]; pH 4.93, aqueous with cosolvent or surfactant or cyclodextrin", "result": 0.108, "unit": "mg/mL"},
      {"measurement": "solubility at 5 days", "setting": "[2]; pH 5.03, water", "result": 0.098, "unit": "mg/mL"},
      {"measurement": "solubility at 5 days", "setting": "[2]; pH 5.04, aqueous with cosolvent or surfactant or cyclodextrin", "result": 0.512, "unit": "mg/mL"},
      {"measurement": "solubility at 5 days", "setting": "[2]; pH 5.08, aqueous with cosolvent or surfactant or cyclodextrin", "result": 0.606, "unit": "mg/mL"},
      {"measurement": "solubility at 5 days", "setting": "[2]; pH 5.11, fessif", "result": 0.06, "unit": "mg/mL"},
      {"measurement": "solubility at 5 days", "setting": "[2]; pH 5.13, aqueous with cosolvent or surfactant or cyclodextrin", "result": 0.354, "unit": "mg/mL"},
      {"measurement": "solubility at 5 days", "setting": "[2]; pH 5.22, aqueous with cosolvent or surfactant or cyclodextrin", "result": 1.62, "unit": "mg/mL"},
      {"measurement": "solubility at 5 days", "setting": "[2]; pH 5.39, aqueous with cosolvent or surfactant or cyclodextrin", "result": 0.11, "unit": "mg/mL"},
      {"measurement": "solubility at 5 days", "setting": "[2]; pH 5.53, aqueous with cosolvent or surfactant or cyclodextrin", "result": 0.223, "unit": "mg/mL"},
      {"measurement": "solubility at 5 days", "setting": "[2]; pH 5.58, saline or isotonic", "result": 0.228, "unit": "mg/mL"},
      {"measurement": "solubility at 5 days", "setting": "[2]; pH 5.59, aqueous with cosolvent or surfactant or cyclodextrin", "result": 0.152, "unit": "mg/mL"},
      {"measurement": "solubility at 5 days", "setting": "[2]; pH 5.74, aqueous with cosolvent or surfactant or cyclodextrin", "result": 0.289, "unit": "mg/mL"},
      {"measurement": "solubility at 5 days", "setting": "[2]; pH 5.78, aqueous with cosolvent or surfactant or cyclodextrin", "result": 1.02, "unit": "mg/mL"},
      {"measurement": "solubility at 5 days", "setting": "[2]; pH 5.83, aqueous with cosolvent or surfactant or cyclodextrin", "result": 1.17, "unit": "mg/mL"},
      {"measurement": "solubility at 5 days", "setting": "[2]; pH 5.97, aqueous with cosolvent or surfactant or cyclodextrin", "result": 0.272, "unit": "mg/mL"},
      {"measurement": "solubility at 5 days", "setting": "[2]; pH 6.04, aqueous with cosolvent or surfactant or cyclodextrin", "result": 0.467, "unit": "mg/mL"},
      {"measurement": "solubility at 5 days", "setting": "[2]; pH 6.17, aqueous with cosolvent or surfactant or cyclodextrin", "result": 0.12, "unit": "mg/mL"},
      {"measurement": "solubility at 5 days", "setting": "[2]; pH 6.18, aqueous with cosolvent or surfactant or cyclodextrin", "result": 0.17, "unit": "mg/mL"},
      {"measurement": "solubility at 5 days", "setting": "[2]; pH 6.19, aqueous with cosolvent or surfactant or cyclodextrin", "result": 0.2, "unit": "mg/mL"},
      {"measurement": "solubility at 5 days", "setting": "[2]; pH 6.47, fassif", "result": 0.08, "unit": "mg/mL"},
      {"measurement": "solubility at 5 days", "setting": "[2]; pH 6.61, aqueous buffer", "result": 0.945, "unit": "mg/mL"},
      {"measurement": "solubility at 5 days", "setting": "[2]; pH 6.63, aqueous buffer", "result": 0.979, "unit": "mg/mL"},
      {"measurement": "solubility at 5 days", "setting": "[2]; pH 6.7, aqueous with cosolvent or surfactant or cyclodextrin", "result": 0.36, "unit": "mg/mL"},
      {"measurement": "solubility at 5 days", "setting": "[2]; pH 7.42, aqueous buffer", "result": 7.62, "unit": "mg/mL"},
      {"measurement": "solubility at 5 days", "setting": "[2]; pH 7.46, aqueous buffer", "result": 6.62, "unit": "mg/mL"}
    ]},
    {"smiles": "CC(C)(C)[C@@H](CC(=O)O)Nc1nc(-c2c[nH]c3ncc(F)cc23)ncc1F", "note": "[HCl Salt]", "values": [
      {"measurement": "Final Form", "setting": "[3]; SGF (pH --1.5), 5 min", "result": "Amorphous"},
      {"measurement": "concentration, two-stage in vitro dissolution", "setting": "[3]; SGF (pH --1.5), 5 min", "result": 14.664},
      {"measurement": "Final Form", "setting": "[3]; SGF (pH --1.5), 15 min", "result": "Amorphous"},
      {"measurement": "concentration, two-stage in vitro dissolution", "setting": "[3]; SGF (pH --1.5), 15 min", "result": 16.565},
      {"measurement": "Final Form", "setting": "[3]; SGF (pH --1.5), 30 min", "result": "Amorphous"},
      {"measurement": "concentration, two-stage in vitro dissolution", "setting": "[3]; SGF (pH --1.5), 30 min", "result": 14.808},
      {"measurement": "Final Form", "setting": "[3]; SGF (pH --1.5), 60 min", "result": "Amorphous"},
      {"measurement": "concentration, two-stage in vitro dissolution", "setting": "[3]; SGF (pH --1.5), 60 min", "result": 15.135},
      {"measurement": "Final Form", "setting": "[3]; SIF (no pH Adjustment), 75 min", "result": "H2"},
      {"measurement": "concentration, two-stage in vitro dissolution", "setting": "[3]; SIF (no pH Adjustment), 75 min", "result": 0.747},
      {"measurement": "Final Form", "setting": "[3]; SIF (no pH Adjustment), 90 min", "result": "H2"},
      {"measurement": "concentration, two-stage in vitro dissolution", "setting": "[3]; SIF (no pH Adjustment), 90 min", "result": 0.964},
      {"measurement": "Final Form", "setting": "[3]; SIF (pH --6.4), 105 min", "result": "H2"},
      {"measurement": "concentration, two-stage in vitro dissolution", "setting": "[3]; SIF (pH --6.4), 105 min", "result": 0.474},
      {"measurement": "Final Form", "setting": "[3]; SIF (pH --6.4), 120 min", "result": "H2"},
      {"measurement": "concentration, two-stage in vitro dissolution", "setting": "[3]; SIF (pH --6.4), 120 min", "result": 0.477},
      {"measurement": "Final Form", "setting": "[3]; SIF (pH --6.4), 150 min", "result": "H2"},
      {"measurement": "concentration, two-stage in vitro dissolution", "setting": "[3]; SIF (pH --6.4), 150 min", "result": 0.749},
      {"measurement": "Final Form", "setting": "[3]; SIF (pH --6.4), 180 min", "result": "H2"},
      {"measurement": "concentration, two-stage in vitro dissolution", "setting": "[3]; SIF (pH --6.4), 180 min", "result": 0.340},
      {"measurement": "Final Form", "setting": "[3]; SIF (pH --6.4), 240 min", "result": "H2"},
      {"measurement": "concentration, two-stage in vitro dissolution", "setting": "[3]; SIF (pH --6.4), 240 min", "result": 0.395}
    ]}
  ]
}
